Data taken from US20260240974A1, “A T[…] VACCINE BASED ON VALIDATED TARGET EPITOPES” (Deutsches Krebsforschungszentrum Stiftung des öffentlichen …, priority 2023, published 2026).
Where two headings read alike, the source gives them in different places.

What was measured:
HPV16-positive cells [1] = assay: HLA immunoprecipitation and LC-MS of peptides presented by HPV16-positive cells; format: cell-based, human; design: key: +: presentation: HLA-presentation of the peptide by HPV16-positive cells shown by MS; conditions: HLA-presentation by HPV16-positive cells shown by MS
Experimental: HLA immunoprecipitation (IP) was performed according to previously published protocols (Bassani-Sternberg et al., 2016; Chong et al., 2018). Briefly, HPV16+ cells were lysed with a lysis buffer containing 1% N-octyl-β-D glucopyranoside, 0.25% Na-Deoxycholate, protease inhibitor cocktail (Sigma-Aldrich, Mannheim, Germany)/PMSF (Carl Roth, Karlsruhe, Germany) in PBS. After centrifugation at 40,000×g, 4° C., for 30 min. HLA-peptide complexes were immuno-precipitated by incubation with mouse anti-human HLA-A,B,C monoclonal antibody (clone W6/32, Biolegend, San Diego, CA, USA) or in some cases HLA-type-specific antibody (HLA-A2: clone BB7.2, HLA-A3: clone GAP A3, HLA-A11/A24: clone Hb 164, HLA-B7: clone BB7.1) crosslinked to protein G Sepharose beads (Cytiva, Marlborough, MA, USA) or Protein A—Sepharose™ 4B (Invitrogen Corporation, Camarillo, CA, USA) for 4 h at 4° C. under constant mixing on a rotating wheel. Supernatant was discarded after centrifugation at 3200×g, for 3 min at RT. Pelleted HLA-peptide complexes bound to antibody-beads were washed 3 times in each of the following steps: first with ice-cold 20 mM Tris-HCl pH 8 containing 150 mM NaCl followed by the same buffer but with additional […] and finally with 20 mM Tris-HCl alone. Peptides were eluted from antibody-beads bound to HLA by 0.3% TFA. Resulting peptides were desalted by reverse-phase purification using a SepPak 96-well plate (Waters, Milford, MA, USA). Peptides eluted in 28% ACN in 0.1% TFA were dried by vacuum centrifugation (Concentrator plus, Eppendorf, Hamburg, Germany).
The set of predicted target peptides were acquired as stable isotope labelled (SIL) peptides from commercial suppliers (crude synthesis product; isotope purity >99 atom % ^13C and ^15N). First, analysis by direct infusion was performed in order to optimize normalized collision energy (NCE) for each single peptide in a mixture. NCE values were ranging from 4% to 42% and each value, in 2% steps, was measured 4 times for four charge states (1+ to 4+) of each peptide. Orbitrap Exploris 480 (Thermo Fisher Scientific) in targeted MS2 scan (PRM) was operated using 30K resolution at 200 m/z, standard automated gain control (AGC) target, 350 ms maximum injection time (IT), 1 micro scan in centroid data acquisition mode. For all measurements, isolation window was 0.4, 0.7, 1 or 1.5 m/z, depending on the mass of the precursor, as recommended by the manufacturer. Ion chromatograms of all expected transitions were extracted with 12 ppm mass tolerance from the centroided spectra and deconvoluted using purpose-made R scripts. The best NCE value was selected so that the intensity of any 5th most intense transitions is maximized, thereby maximizing the chance of detecting at least 5 transitions. The retention time (RT) for each peptide was determined by LC-MS in DDA mode with an inclusion list of target peptides in all four charge-states. The MS resolution was set to 120K, 3e6 AGC target, 50 ms maximum IT and the LC operated as described below.
For LC-MS, samples were dissolved in 2.5 to 5 μl of 5% ACN in 0.1% TFA with 50 fmol of Peptide Retention Time Calibration (PRTC) Mixture (88321, Pierce™) spiked in, followed by 3 min bath sonication. All samples were analysed by liquid chromatography (U-3000, Thermo Fisher Scientific) coupled to Orbitrap Exploris 480 (Thermo Fisher Scientific). […]

[2] = tested on: short-term antigen-specific T cell lines generated from PBMCs; design: key: +: ELISPOT: Immungenicity of the peptide shown by IFN-gamma ELISPOT analysis; conditions: immunogenicity by IFN-gamma ELISPOT, * data from published resources, cited from earlier work
HPV16-positive cells [3] = tested on: HPV16-positive cells; design: key: +: presentation: HLA-presentation of the peptide by HPV16-positive cells shown by MS; conditions: HLA-presentation by HPV16-positive cells shown by MS; * data from published resources; cited from earlier work
[4] = tested on: short-term antigen-specific T cell lines generated from PBMCs; assay: Interferon-γ ELISpot assay on short-term peptide-specific T cell lines from PBMCs; format: cell-based, human; design: key: +: ELISPOT: Immungenicity of the peptide shown by IFN-gamma ELISPOT analysis; conditions: immunogenicity by IFN-gamma ELISPOT

Substance | presentation (HPV16-positive cells [1]) | ELISpot [2] | presentation (HPV16-positive cells [3]) | ELISpot [4] | ELISpot ([4]; B15) | ELISpot ([2]; B07)
1 (ISEYRHYCY; Human papillomavirus 16) [compound 1] | + | +* | – | – | – | –
2 (YMLDLQPET; Human papillomavirus 16) [compound 2] | – | +* | +* | – | – | –
3 (TTLEQQYNK; Human papillomavirus 16) [compound 3] | + | – | – | + | – | –
4 (RAHYNIVTF; Human papillomavirus 16) [compound 4] | + | – | – | – | +(B15) | +*(B07)
5 (RPRKLPQL; Human papillomavirus 16) [compound 5] | + | – | – | + | – | –
6 (LQPETTDLY; Human papillomavirus 16) [compound 6] | + | +* | – | – | – | –
